Test results reported in PubChem BioAssay AID1963845 (Molecular Pharmacology Branch, DTP, NCI, 2024).

Test system: 429239-143-T-J1-PDC complex spheroid viability
Assay: Anticancer human tumor 429239-143-T-J1-PDC patient-derived small cell lung carcinoma cell line growth inhibition [POLQ]
Conditions: for IC50: curve of first compound; for viability, T/C: stronger effect = lower value
Outline: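 Three-cell-type spheroids modelling solid tumor plus stroma served as the readout system; POL inhibitors were tested individually and in combination, concentration ranges set by clinical Cmax where known.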

[1] = second compound 0.0316 µM, first compound 0.0316 µM
[2] = second compound 0.0316 µM, first compound 0.1 µM
[3] = second compound 0.0316 µM, first compound 0.316 µM
[4] = second compound 0.0316 µM, first compound 1 µM
[5] = second compound 0.0316 µM, first compound 3.16 µM
[6] = second compound 0.0316 µM, first compound 10 µM
[7] = second compound 0.1 µM, first compound 0.0316 µM
[8] = second compound 0.1 µM, first compound 0.1 µM
[9] = second compound 0.1 µM, first compound 0.316 µM
[10] = second compound 0.1 µM, first compound 1 µM
[11] = second compound 0.1 µM, first compound 3.16 µM
[12] = second compound 0.1 µM, first compound 10 µM
[13] = second compound 0.316 µM, first compound 0.0316 µM
[14] = second compound 0.316 µM, first compound 0.1 µM
[15] = second compound 0.316 µM, first compound 0.316 µM
[16] = second compound 0.316 µM, first compound 1 µM
[17] = second compound 0.316 µM, first compound 3.16 µM
[18] = second compound 0.316 µM, first compound 10 µM
[19] = second compound 1 µM, first compound 0.0316 µM
[20] = second compound 1 µM, first compound 0.1 µM
[21] = second compound 1 µM, first compound 0.316 µM
[22] = second compound 1 µM, first compound 1 µM
[23] = second compound 1 µM, first compound 3.16 µM
[24] = second compound 1 µM, first compound 10 µM
[25] = second compound 3.16 µM, first compound 0.0316 µM
[26] = second compound 3.16 µM, first compound 0.1 µM
[27] = second compound 3.16 µM, first compound 0.316 µM
[28] = second compound 3.16 µM, first compound 1 µM
[29] = second compound 3.16 µM, first compound 3.16 µM
[30] = second compound 3.16 µM, first compound 10 µM
[31] = second compound 10 µM, first compound 0.0316 µM
[32] = second compound 10 µM, first compound 0.1 µM
[33] = second compound 10 µM, first compound 0.316 µM
[34] = second compound 10 µM, first compound 1 µM
[35] = second compound 10 µM, first compound 3.16 µM
[36] = second compound 10 µM, first compound 10 µM
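Note: luminescence signal used as surrogate measure of viable cells; spheroids exposed to compounds for seven days before readout.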
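Throughout, for viability, T/C: 100% = DMSO vehicle control viability as luminescence relative to vehicle.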

## COc1ccc([C@@H](O)c2cc(-c3ncnc4cc(N5CCOCC5)ccc34)c(F)cc2Cl)nn1 + Nc1ccc(C#CCN(C(=O)Cc2ncc(C(F)(F)F)cc2C(F)(F)F)c2ccc(F)cc2)nn1
Second compound 0.0316 µM
  IC50: 9.31 µM
Second compound 0.1 µM
  IC50: 9.66 µM
Second compound 0.316 µM
  IC50: 8.87 µM
Second compound 1 µM
  IC50: > 10 µM
Second compound 3.16 µM
  IC50: 8.13 µM
Second compound 10 µM
  IC50: 7.29 µM
[1]
  viability, T/C: 92%
[2]
  viability, T/C: 103%
[3]
  viability, T/C: 102%
[4]
  viability, T/C: 98.8%
[5]
  viability, T/C: 90.1%
[6]
  viability, T/C: 47.2%
[7]
  viability, T/C: 97.8%
[8]
  viability, T/C: 105%
[9]
  viability, T/C: 101%
[10]
  viability, T/C: 94.3%
[11]
  viability, T/C: 86.1%
[12]
  viability, T/C: 48.4%
[13]
  viability, T/C: 107%
[14]
  viability, T/C: 101%
[15]
  viability, T/C: 102%
[16]
  viability, T/C: 112%
[17]
  viability, T/C: 88.8%
[18]
  viability, T/C: 45.5%
[19]
  viability, T/C: 97.8%
[20]
  viability, T/C: 86.6%
[21]
  viability, T/C: 97%
[22]
  viability, T/C: 100%
[23]
  viability, T/C: 84%
[24]
  viability, T/C: 55.8%
[25]
  viability, T/C: 106%
[26]
  viability, T/C: 102%
[27]
  viability, T/C: 96.8%
[28]
  viability, T/C: 96.6%
[29]
  viability, T/C: 78.7%
[30]
  viability, T/C: 43.5%
[31]
  viability, T/C: 95.2%
[32]
  viability, T/C: 94.4%
[33]
  viability, T/C: 108%
[34]
  viability, T/C: 97%
[35]
  viability, T/C: 72.1%
[36]
  viability, T/C: 41.6%

## C=CC(=O)N1CCN(c2nc(=O)n(-c3c(C)ccnc3C(C)C)c3nc(-c4c(O)cccc4F)c(F)cc23)C(C)C1 (centres undefined) + Cc1cccc(N(C)C(=O)C2C(O)CCN2c2nc(C)cc(C(F)(F)F)c2C#N)c1
Second compound 0.0316 µM
  IC50: > 10 µM
Second compound 0.1 µM
  IC50: > 10 µM
Second compound 0.316 µM
  IC50: > 10 µM
Second compound 1 µM
  IC50: > 10 µM
Second compound 3.16 µM
  IC50: > 10 µM
Second compound 10 µM
  IC50: > 10 µM
[1]
  viability, T/C: 97.2%
[2]
  viability, T/C: 85%
[3]
  viability, T/C: 102%
[4]
  viability, T/C: 97.5%
[5]
  viability, T/C: 96%
[6]
  viability, T/C: 98.7%
[7]
  viability, T/C: 93.2%
[8]
  viability, T/C: 96.8%
[9]
  viability, T/C: 108%
[10]
  viability, T/C: 89.8%
[11]
  viability, T/C: 92.9%
[12]
  viability, T/C: 109%
[13]
  viability, T/C: 105%
[14]
  viability, T/C: 94.3%
[15]
  viability, T/C: 107%
[16]
  viability, T/C: 97.8%
[17]
  viability, T/C: 108%
[18]
  viability, T/C: 116%
[19]
  viability, T/C: 88.8%
[20]
  viability, T/C: 93.4%
[21]
  viability, T/C: 104%
[22]
  viability, T/C: 88.5%
[23]
  viability, T/C: 103%
[24]
  viability, T/C: 104%
[25]
  viability, T/C: 95.5%
[26]
  viability, T/C: 88%
[27]
  viability, T/C: 86.6%
[28]
  viability, T/C: 101%
[29]
  viability, T/C: 104%
[30]
  viability, T/C: 122%
[31]
  viability, T/C: 98.8%
[32]
  viability, T/C: 85.3%
[33]
  viability, T/C: 94.4%
[34]
  viability, T/C: 97.9%
[35]
  viability, T/C: 102%
[36]
  viability, T/C: 100%
